{"source": "patent US20080039431A1", "about": "“Method of improving plant growth by reducing viral infections” (priority 2006, published 2008)", "key": {"[1]": {"tested_on": "tomato spotted wilt virus (TSWV)", "test": "Non-replicated GLP peanut residue trial, Tifton, Ga. (Example 4)", "type": "in vivo", "conditions": "for Percent row feet infected with TSWV: rated August 22, 525 row ft plot", "method": "Cultivation—A non-replicated GLP (good laboratory practice) peanut residue trial was in progress at the Tifton, Ga., location using similar cultivation methods as in Examples 1-3. The planting and in-furrow treatment date was May 26. Prothioconazole treated seed were prepared two weeks prior on May 12. Plots were 525 row ft. Treatments— • Untreated—no in-furrow treatment, chlorothalonil maintenance only for foliar diseases. • Seed treatment, in-furrow, and foliar—prothioconazole seed treatment@10 g active ingredient/100 kg seed plus prothioconazole applied in-furrow@200 g active ingredient/Ha followed by prothioconazole@100 g active ingredient/Ha on July 21, August 4, and August 18. • Foliar only—prothioconazole@200 g active ingredient/Ha on July 21, August 4, and August 18. TSWV rating—For TSWV incidence determination, on August 22 the number of row feet per plot with TSWV symptoms (chlorosis and stunting) was determined for the three treatments. Statistics cannot be run on single-replication trials."}, "[2]": {"tested_on": "tomato spotted wilt virus (TSWV)", "test": "Replicated tomato drench trial (Example 6)", "type": "in vivo, tomato (Lycopersicon esculentum MILL.)", "conditions": "prothioconazole 0.0084 g ai/plant, imidacloprid 0.01 g/plant; for Percent control of incidence of TSWV in tomatoes: Abbott's formula; for Percent incidence of TSWV in tomatoes: drench", "method": "Cultivation—A replicated trial on tomato (Lycopersicon esculentum MILL.) was initiated in Molino, Fla. to determine if drenches of prothioconazole alone and in combination with the insecticide imidacloprid would suppress TSWV in tomato. Tomato plants, cultivar FL 47 were transplanted on April 11 into 4 rows, each 9.1 meters long, 60 plants per plot, with three replications. Treatments were applied, into a shallow bowl dug at the base of each plant, as a drench in 40 ml water per plant (6 days after transplanting) on April 17. Treatments— • Untreated—no in-furrow treatment • Imidacloprid@0.01 g imidacloprid/plant. • Prothioconazole—prothioconazole@0.0084 g active ingredient/plant. • Prothioconazole+Imidacloprid—prothioconazole@0.0084 g active ingredient/plant+imidacloprid@0.01 g imidacloprid/plant. TSWV rating—University researchers recommend buffers in TSWV testing. Therefore, the center two rows (30 plants) per plot were used for virus ratings with the outer two rows acting as buffers. TSWV incidence determinations were made based on the presence or absence of TSWV symptoms (chlorosis and stunting) per plant. The four treatments were rated at 21, 29, and 39 days after treatment. Synergy formula—The Colby formula for proof of synergy was used in Example 6. The percent incidence values were converted to percent control with Abbotts's formula (1-treated/untreated)*100. Percent control values for solo treatment X and solo treatment Y, were entered into the Colby formula. When the value determined from the plots with both treatment X and Y applied together is greater than the value determined by the Colby formula then synergy is indicated. The formula is: X+Y−(X*Y/100)."}, "[3]": {"tested_on": "tomato spotted wilt virus (TSWV)", "test": "Bell pepper drench trial (Example 7)", "type": "in vivo, bell pepper (Capsicum annum L.)", "conditions": "for Percent control of incidence of TSWV in bell peppers: Abbott's formula; for Percent incidence TSWV in bell peppers: drench, prothioconazole 0.0084 g ai/plant, imidacloprid 0.01 g/plant", "method": "Cultivation—A trial on bell pepper (Capsicum annum L.) was initiated in Molino, Fla. to see if drenches of prothioconazole alone and in combination with the insecticide imidacloprid could control TSWV in pepper. Bell pepper plants were transplanted on April 11 into 9.1 meter plots with three replications as in Example 6. Treatments were applied as a drench in 40 ml water per plant (7 days after transplanting) on April 18 as in Example 6.\nTreatments— • Untreated—no in-furrow treatment. • Imidacloprid—imidacloprid@0.01 g imidacloprid/plant. • Prothioconazole—prothioconazole@0.0084 g prothioconazole/plant. • Prothioconazole+Imidacloprid—prothioconazole@0.0084 g active ingredient/plant+imidacloprid@0.01 g imidacloprid/plant.\nTSWV rating—For TSWV incidence determination, the percentage of plants with TSWV symptoms (chlorosis and stunting) was determined for the four treatments at 21, 29, 38, and 47 days after treatment as in Example 6.\nSynergy formula—The Colby formula for proof of synergy was used in Example 7 as in Example 6."}, "[4]": {"tested_on": "tomato spotted wilt virus (TSWV)", "test": "Non-replicated GLP peanut residue trial, Molino, Fla. (Example 5)", "type": "in vivo", "conditions": "for Percent row feet infected with TSWV: Georgia Green, rated August 23, 160 row ft plot", "method": "Cultivation—A non-replicated GLP peanut residue trial was conducted in Molino, Fla., using similar methods as in Examples 3 and 4. The cultivar used was Georgia Green. Prothioconazole treated seed were prepared on May 12. Plots were 160 row ft. in length. Treatments— • Untreated—no in-furrow treatment, chlorothalonil maintenance only for foliar diseases. • Seed treatment, in-furrow, and foliar—prothioconazole seed treatment@10 g active ingredient/100 kg seed plus prothioconazole applied in-furrow@200 g active ingredient/Ha followed by a program of three chlorothalonil applications and four applications of prothioconazole@100 g active ingredient/Ha. • Foliar only—A program of three chlorothalonil applications and four applications of prothioconazole@200 g active ingredient/Ha. TSWV rating—For TSWV incidence determination, on August 23 the number of row feet per plot with TSWV symptoms (chlorosis and stunting) was determined for the three treatments. Statistics cannot be run on single replication trials."}}, "data": [{"smiles": "OC(Cc1ccccc1Cl)(Cn1nc[nH]c1=S)C1(Cl)CC1", "note": "(stereo not drawn) [Prothioconazole, prothioconazole]", "values": [{"measurement": "Percent row feet infected with TSWV", "setting": "[1]; foliar only 200 g ai/Ha x3", "result": 30.5, "unit": "%"}, {"measurement": "Percent row feet infected with TSWV", "setting": "[1]; seed treatment 10 g ai/100 kg seed + in-furrow 200 g ai/Ha + foliar 100 g ai/Ha x3", "result": 24.0, "unit": "%"}, {"measurement": "Number of row feet infected with TSWV compared with foliar only program or untreated", "setting": "[1]; seed treatment, in-furrow, and foliar applications", "result": "numerically lower"}, {"measurement": "Percent control of incidence of TSWV in tomatoes", "setting": "[2]; 21 days after treatment", "result": 54.79, "unit": "%"}, {"measurement": "Percent incidence of TSWV in tomatoes", "setting": "[2]; 21 days after treatment", "result": 13.2, "unit": "%"}, {"measurement": "Percent control of incidence of TSWV in tomatoes", "setting": "[2]; 29 days after treatment", "result": 28.00, "unit": "%"}, {"measurement": "Percent incidence of TSWV in tomatoes", "setting": "[2]; 29 days after treatment", "result": 48.6, "unit": "%"}, {"measurement": "Percent control of incidence of TSWV in tomatoes", "setting": "[2]; 39 days after treatment", "result": 21.18, "unit": "%"}, {"measurement": "Percent incidence of TSWV in tomatoes", "setting": "[2]; 39 days after treatment", "result": 66.6, "unit": "%"}, {"measurement": "Percent control of incidence of TSWV in bell peppers", "setting": "[3]; 21 days after treatment", "result": 24.90, "unit": "%"}, {"measurement": "Percent incidence TSWV in bell peppers", "setting": "[3]; 21 days after treatment", "result": 18.1, "unit": "%"}, {"measurement": "Percent control of incidence of TSWV in bell peppers", "setting": "[3]; 29 days after treatment", "result": 32.20, "unit": "%"}, {"measurement": "Percent incidence TSWV in bell peppers", "setting": "[3]; 29 days after treatment", "result": 31.8, "unit": "%"}, {"measurement": "Percent control of incidence of TSWV in bell peppers", "setting": "[3]; 38 days after treatment", "result": 12.84, "unit": "%"}, {"measurement": "Percent incidence TSWV in bell peppers", "setting": "[3]; 38 days after treatment", "result": 44.8, "unit": "%"}, {"measurement": "Percent control of incidence of TSWV in bell peppers", "setting": "[3]; 47 days after treatment", "result": 6.44, "unit": "%"}, {"measurement": "Percent incidence TSWV in bell peppers", "setting": "[3]; 47 days after treatment", "result": 49.4, "unit": "%"}, {"measurement": "Increase of TSWV level from 38 DAT to 47 DAT", "setting": "[3]; bell pepper, untreated increased by 1.4 percent", "result": "roughly 4.5%"}, {"measurement": "Percent row feet infected with TSWV", "setting": "[4]; foliar only: three chlorothalonil and four prothioconazole 200 g ai/Ha applications", "result": 16.25, "unit": "%"}, {"measurement": "Percent row feet infected with TSWV", "setting": "[4]; seed treatment 10 g ai/100 kg seed + in-furrow 200 g ai/Ha + three chlorothalonil and four prothioconazole 100 g ai/Ha applications", "result": 10.6, "unit": "%"}, {"measurement": "Number of row feet infected with TSWV compared with foliar only program or chlorothalonil maintenance only", "setting": "[4]; seed treatment, in-furrow, and foliar prothioconazole applications (treatment 2)", "result": "numerically lower"}]}]}
